In patent US8802597B2, “Herbicidal pyrimidines” (E I du Pont de Nemours and Company, priority 2003, dated 2014):

Tests used:
Type in all cases: in vivo
[1] = tested on: early watergrass (Echinochloa oryzoides); test: Test E flooded paddy water application; conditions: Flood, 21 days, scale 0 to 100 (0 no effect, 100 complete control)
Procedure, shortened: (§1)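 Response scored visually on a 0–100 scale (100 = complete control) at 21 days against untreated pots. Treatment was into paddy water 3 cm deep over silt loam, with plants at the 2.0–2.5-leaf stage, grown under 16-h light at 29.5/26.7 °C day/night.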

[2] = tested on: late watergrass (Echinochloa oryzicola); test: Test E flooded paddy water application; conditions: Flood, 21 days, scale 0 to 100 (0 no effect, 100 complete control); for Plant response rating, Watergrass, Late: 16 g ai/ha
Procedure, shortened: as §1

[3] = tested on: junglerice (Echinochloa colona); test: Test E flooded paddy water application; conditions: Flood, 21 days, scale 0 to 100 (0 no effect, 100 complete control); for Plant response rating, Junglerice: 16 g ai/ha
Procedure, shortened: as §1

[4] = tested on: smallflower umbrella sedge (Cyperus difformis); test: Test E flooded paddy water application; conditions: Flood, 21 days, scale 0 to 100 (0 no effect, 100 complete control); for Plant response rating, Sedge, Umbrella: 16 g ai/ha
Procedure, shortened: as §1

[5] = tested on: transplanted rice seedlings (Oryza sativa cv. ‘Japonica-M202’); test: Test E flooded paddy water application; conditions: Flood, 21 days, scale 0 to 100 (0 no effect, 100 complete control); for Plant response rating, Rice, Transplanted: 16 g ai/ha
Procedure, shortened: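 Greenhouse pots of Tama silt loam with weeds and rice at 2.0–2.5-leaf stage, flooded to 3 cm; compounds applied directly into paddy water, depth maintained. Visual rating versus untreated controls after 21 days, 0 (no effect) to 100 (complete control); 29.5/26.7 °C, 16-h photoperiod.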

[6] = tested on: bearded (brdd.) sprangletop (Leptochloa fusca ssp. fascicularis); test: Test E flooded paddy water application; conditions: Flood, 21 days, scale 0 to 100 (0 no effect, 100 complete control); for Plant response rating, Sprangletop, Brdd.: 16 g ai/ha
Procedure, shortened: as §1

[7] = tested on: ducksalad (Heteranthera limosa); test: Test E flooded paddy water application; conditions: Flood, 21 days, scale 0 to 100 (0 no effect, 100 complete control); for Plant response rating, Ducksalad: 16 g ai/ha
Procedure, shortened: as §1

[8] = tested on: water seeded rice seedlings (Oryza sativa cv. ‘Japonica-M202’); test: Test E flooded paddy water application; conditions: Flood, 21 days, scale 0 to 100 (0 no effect, 100 complete control); for Plant response rating, Rice, Water Seeded: 16 g ai/ha
Procedure, shortened: as §1

[9] = tested on: barnyardgrass (Echinochloa crus-galli); test: Test E flooded paddy water application; conditions: Flood, 21 days, scale 0 to 100 (0 no effect, 100 complete control); for Plant response rating, Barnyardgrass: 16 g ai/ha
Procedure, shortened: as §1

[10] = tested on: yellow nutsedge (Cyperus esculentus); test: Test C pre/postemergence; conditions: Postemergence; for Nutsedge, Yellow plant response rating: scale 0 to 100 (0 no effect, 100 complete control); for Plant response rating, Nutsedge, Yellow: scale 0 to 100
Procedure, shortened: (§2)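 Greenhouse pot test: seeds treated preemergence, or plants at 2–18 cm (1- to 4-leaf stage) treated postemergence, with compound in non-phytotoxic solvent plus surfactant. Visual rating versus untreated controls after 12–14 days, scale 0 (no effect) to 100 (complete control); dash means not tested.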

[11] = tested on: velvetleaf (Abutilon theophrasti); test: Test C pre/postemergence; conditions: Postemergence; for Velvetleaf plant response rating: scale 0 to 100 (0 no effect, 100 complete control); for Plant response rating, Velvetleaf: scale 0 to 100
Procedure, shortened: as §2

COC(=O)c1nc(-c2ccc(I)cc2)nc(N)c1Br [Compound 128]
Watergrass, Early plant response rating ([1]; 32 g ai/ha): 0 | Watergrass, Early plant response rating ([1]; 64 g ai/ha): 0 | Watergrass, Early plant response rating ([1]; 125 g ai/ha): 0 | Watergrass, Early plant response rating ([1]; 250 g ai/ha): 0 | Plant response rating, Watergrass, Early ([1]; 16 g ai/ha): 0 | Watergrass, Late plant response rating ([2]; 32 g ai/ha): 0 | Watergrass, Late plant response rating ([2]; 64 g ai/ha): 0 | Watergrass, Late plant response rating ([2]; 125 g ai/ha): 0 | Watergrass, Late plant response rating ([2]; 250 g ai/ha): 0 | Plant response rating, Watergrass, Late [2]: 0 | Junglerice plant response rating ([3]; 32 g ai/ha): 0 | Junglerice plant response rating ([3]; 64 g ai/ha): 0 | Junglerice plant response rating ([3]; 125 g ai/ha): 0 | Junglerice plant response rating ([3]; 250 g ai/ha): 10 | Plant response rating, Junglerice [3]: 0 | Sedge, Umbrella plant response rating ([4]; 32 g ai/ha): 60 | Sedge, Umbrella plant response rating ([4]; 64 g ai/ha): 70 | Sedge, Umbrella plant response rating ([4]; 125 g ai/ha): 100 | Sedge, Umbrella plant response rating ([4]; 250 g ai/ha): 100 | Plant response rating, Sedge, Umbrella [4]: 0 | Rice, Transplanted plant response rating ([5]; 32 g ai/ha): 0 | Rice, Transplanted plant response rating ([5]; 64 g ai/ha): 0 | Rice, Transplanted plant response rating ([5]; 125 g ai/ha): 0 | Rice, Transplanted plant response rating ([5]; 250 g ai/ha): 0 | Plant response rating, Rice, Transplanted [5]: 0 | Sprangletop, Brdd. plant response rating ([6]; 32 g ai/ha): 0 | Sprangletop, Brdd. plant response rating ([6]; 64 g ai/ha): 0 | Sprangletop, Brdd. plant response rating ([6]; 125 g ai/ha): 0 | Sprangletop, Brdd. plant response rating ([6]; 250 g ai/ha): 80 | Plant response rating, Sprangletop, Brdd. [6]: 0 | Ducksalad plant response rating ([7]; 32 g ai/ha): 100 | Ducksalad plant response rating ([7]; 64 g ai/ha): 100 | Ducksalad plant response rating ([7]; 125 g ai/ha): 100 | Ducksalad plant response rating ([7]; 250 g ai/ha): 100 | Plant response rating, Ducksalad [7]: 95 | Rice, Water Seeded plant response rating ([8]; 32 g ai/ha): 0 | Rice, Water Seeded plant response rating ([8]; 64 g ai/ha): 0 | Rice, Water Seeded plant response rating ([8]; 125 g ai/ha): 0 | Rice, Water Seeded plant response rating ([8]; 250 g ai/ha): 0 | Plant response rating, Rice, Water Seeded [8]: 0 | Barnyardgrass plant response rating ([9]; 32 g ai/ha): 0 | Barnyardgrass plant response rating ([9]; 64 g ai/ha): 0 | Barnyardgrass plant response rating ([9]; 125 g ai/ha): 0 | Barnyardgrass plant response rating ([9]; 250 g ai/ha): 0 | Plant response rating, Barnyardgrass [9]: 0

COC(=O)c1nc(-c2ccc(Cl)cc2)nc(N)c1Cl [Compound 58, methyl 6-amino-5-chloro-2-(4-chlorophenyl)-4-pyrimidinecarboxylate]
Watergrass, Late plant response rating ([2]; 32 g ai/ha): 0 | Watergrass, Late plant response rating ([2]; 64 g ai/ha): 0 | Watergrass, Late plant response rating ([2]; 125 g ai/ha): 0 | Watergrass, Late plant response rating ([2]; 250 g ai/ha): 0 | Plant response rating, Watergrass, Late [2]: 0 | Junglerice plant response rating ([3]; 32 g ai/ha): 0 | Junglerice plant response rating ([3]; 64 g ai/ha): 0 | Junglerice plant response rating ([3]; 125 g ai/ha): 0 | Junglerice plant response rating ([3]; 250 g ai/ha): 0 | Plant response rating, Junglerice [3]: 0 | Sedge, Umbrella plant response rating ([4]; 32 g ai/ha): 95 | Sedge, Umbrella plant response rating ([4]; 64 g ai/ha): 95 | Sedge, Umbrella plant response rating ([4]; 125 g ai/ha): 95 | Sedge, Umbrella plant response rating ([4]; 250 g ai/ha): 100 | Plant response rating, Sedge, Umbrella [4]: 65 | Rice, Transplanted plant response rating ([5]; 32 g ai/ha): 0 | Rice, Transplanted plant response rating ([5]; 64 g ai/ha): 0 | Rice, Transplanted plant response rating ([5]; 125 g ai/ha): 0 | Rice, Transplanted plant response rating ([5]; 250 g ai/ha): 0 | Plant response rating, Rice, Transplanted [5]: 0 | Sprangletop, Brdd. plant response rating ([6]; 32 g ai/ha): 40 | Sprangletop, Brdd. plant response rating ([6]; 64 g ai/ha): 60 | Sprangletop, Brdd. plant response rating ([6]; 125 g ai/ha): 60 | Sprangletop, Brdd. plant response rating ([6]; 250 g ai/ha): 60 | Plant response rating, Sprangletop, Brdd. [6]: 20 | Ducksalad plant response rating ([7]; 32 g ai/ha): 100 | Ducksalad plant response rating ([7]; 64 g ai/ha): 100 | Ducksalad plant response rating ([7]; 125 g ai/ha): 100 | Ducksalad plant response rating ([7]; 250 g ai/ha): 100 | Plant response rating, Ducksalad [7]: 100 | Rice, Water Seeded plant response rating ([8]; 32 g ai/ha): 0 | Rice, Water Seeded plant response rating ([8]; 64 g ai/ha): 0 | Rice, Water Seeded plant response rating ([8]; 125 g ai/ha): 0 | Rice, Water Seeded plant response rating ([8]; 250 g ai/ha): 20 | Plant response rating, Rice, Water Seeded [8]: 0

CCOC(=O)c1nc(-c2ccc(Cl)cc2)nc(N)c1Br [Compound 37]
Nutsedge, Yellow plant response rating ([10]; 62 g ai/ha): 0 | Nutsedge, Yellow plant response rating ([10]; 125 g ai/ha): 0 | Plant response rating, Nutsedge, Yellow ([10]; 250 g ai/ha): 0 | Plant response rating, Nutsedge, Yellow ([10]; 500 g ai/ha): 20 | Velvetleaf plant response rating ([11]; 62 g ai/ha): 0 | Velvetleaf plant response rating ([11]; 125 g ai/ha): 85 | Plant response rating, Velvetleaf ([11]; 250 g ai/ha): 90 | Plant response rating, Velvetleaf ([11]; 500 g ai/ha): 95 | Watergrass, Late plant response rating ([2]; 32 g ai/ha): 0 | Watergrass, Late plant response rating ([2]; 64 g ai/ha): 0 | Watergrass, Late plant response rating ([2]; 125 g ai/ha): 0 | Watergrass, Late plant response rating ([2]; 250 g ai/ha): 0 | Plant response rating, Watergrass, Late [2]: 0 | Junglerice plant response rating ([3]; 32 g ai/ha): 0 | Junglerice plant response rating ([3]; 64 g ai/ha): 0 | Junglerice plant response rating ([3]; 125 g ai/ha): 0 | Junglerice plant response rating ([3]; 250 g ai/ha): 0 | Plant response rating, Junglerice [3]: 0 | Sedge, Umbrella plant response rating ([4]; 32 g ai/ha): 50 | Sedge, Umbrella plant response rating ([4]; 64 g ai/ha): 50 | Sedge, Umbrella plant response rating ([4]; 125 g ai/ha): 65 | Sedge, Umbrella plant response rating ([4]; 250 g ai/ha): 95 | Plant response rating, Sedge, Umbrella [4]: 30 | Rice, Transplanted plant response rating ([5]; 32 g ai/ha): 0 | Rice, Transplanted plant response rating ([5]; 64 g ai/ha): 0 | Rice, Transplanted plant response rating ([5]; 125 g ai/ha): 0 | Rice, Transplanted plant response rating ([5]; 250 g ai/ha): 0 | Plant response rating, Rice, Transplanted [5]: 0 | Sprangletop, Brdd. plant response rating ([6]; 32 g ai/ha): 0 | Sprangletop, Brdd. plant response rating ([6]; 64 g ai/ha): 0 | Sprangletop, Brdd. plant response rating ([6]; 125 g ai/ha): 0 | Sprangletop, Brdd. plant response rating ([6]; 250 g ai/ha): 0 | Plant response rating, Sprangletop, Brdd. [6]: 0 | Ducksalad plant response rating ([7]; 32 g ai/ha): 100 | Ducksalad plant response rating ([7]; 64 g ai/ha): 100 | Ducksalad plant response rating ([7]; 125 g ai/ha): 100 | Ducksalad plant response rating ([7]; 250 g ai/ha): 100 | Plant response rating, Ducksalad [7]: 80 | Rice, Water Seeded plant response rating ([8]; 32 g ai/ha): 0 | Rice, Water Seeded plant response rating ([8]; 64 g ai/ha): 0 | Rice, Water Seeded plant response rating ([8]; 125 g ai/ha): 0 | Rice, Water Seeded plant response rating ([8]; 250 g ai/ha): 0 | Plant response rating, Rice, Water Seeded [8]: 0 | Barnyardgrass plant response rating ([9]; 64 g ai/ha): 0 | Barnyardgrass plant response rating ([9]; 125 g ai/ha): 0 | Barnyardgrass plant response rating ([9]; 250 g ai/ha): 0 | Plant response rating, Barnyardgrass [9]: 0
